Results published in the supplement of paper PMC5908809.

What was measured:
[1] = tested on: normal NK cells expanded with K562-aAPC; experiment: percent inhibition of viability; higher = more inhibition; settings: 72 h, IL-2 2.5 ng/mL
Experimental: (§1)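 Drug sensitivity and resistance testing on K562-aAPC-expanded normal NK cells: 5 concentrations (10-fold steps over a 10,000-fold range), 72 h at 37 °C, viability by CellTiter-Glo normalised to DMSO and benzethonium chloride controls; DSS from the fitted curve.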

[2] = tested on: IMC-1 (IL-2 20 ng/mL); experiment: drug sensitivity score (DSS) (DSS units); higher = more sensitive; extreme values may be limits of the assay; settings: 72 h
[3] = tested on: normal primary NK cells, pool 2 (3 donors) (IL-2 2.5 ng/mL); experiment: as above; settings: 72 h
[4] = tested on: normal primary NK cells, pool 1 (3 donors) (IL-2 2.5 ng/mL); experiment: as above; settings: 72 h
[5] = tested on: YT (IL-2 2.5 ng/mL); experiment: as above; settings: 72 h
[6] = tested on: NK-YS (IL-2 2.5 ng/mL); experiment: as above; settings: 72 h
[7] = tested on: normal primary NK cells, pool 1 (3 donors), resting (IL-2 0 ng/mL); experiment: as above; settings: 72 h
[8] = tested on: DERL-7 (IL-2 2.5 ng/mL); experiment: as above; settings: 72 h
[9] = tested on: KAI3 (IL-2 2.5 ng/mL); experiment: as above; settings: 72 h
[10] = tested on: SNK-6 (IL-2 2.5 ng/mL); experiment: as above; settings: 72 h
[11] = tested on: KHYG-1 (IL-2 2.5 ng/mL); experiment: as above; settings: 72 h
[12] = tested on: NK-92 (IL-2 2.5 ng/mL); experiment: as above; settings: 72 h
[13] = tested on: normal primary NK cells, pool 3 (3 donors) (IL-2 2.5 ng/mL); experiment: as above; settings: 72 h
[14] = tested on: NKL (IL-2 2.5 ng/mL); experiment: as above; settings: 72 h
[15] = tested on: IMC-1 (IL-2 20 ng/mL); experiment: percent inhibition of viability; higher = more inhibition; settings: 72 h
[16] = tested on: normal primary NK cells, pool 2 (3 donors) (IL-2 2.5 ng/mL); experiment: as above; settings: 72 h
[17] = tested on: normal primary NK cells, pool 1 (3 donors) (IL-2 2.5 ng/mL); experiment: as above; settings: 72 h
[18] = tested on: YT (IL-2 2.5 ng/mL); experiment: as above; settings: 72 h
[19] = tested on: NK-YS (IL-2 2.5 ng/mL); experiment: as above; settings: 72 h
[20] = tested on: normal primary NK cells, pool 1 (3 donors), resting (IL-2 0 ng/mL); experiment: as above; settings: 72 h
[21] = tested on: DERL-7 (IL-2 2.5 ng/mL); experiment: as above; settings: 72 h
[22] = tested on: KAI3 (IL-2 2.5 ng/mL); experiment: as above; settings: 72 h
[23] = tested on: SNK-6 (IL-2 2.5 ng/mL); experiment: as above; settings: 72 h
[24] = tested on: KHYG-1 (IL-2 2.5 ng/mL); experiment: as above; settings: 72 h
[25] = tested on: NK-92 (IL-2 2.5 ng/mL); experiment: as above; settings: 72 h
[26] = tested on: normal primary NK cells, pool 3 (3 donors) (IL-2 2.5 ng/mL); experiment: as above; settings: 72 h
[27] = tested on: NKL (IL-2 2.5 ng/mL); experiment: as above; settings: 72 h
[28] = tested on: normal NK cells expanded with K562-aAPC; experiment: drug sensitivity score (DSS) (DSS units); higher = more sensitive; extreme values may be limits of the assay; settings: 72 h; IL-2 2.5 ng/mL
Experimental: as §1

O=C(Nc1ccc(-c2ccnc(Nc3ccc(N4CCOCC4)cc3)n2)cc1)C1CCCN1 (centres undefined) [XL019] (max concentration tested 10000 nM)
percent inhibition of viability [%]
Settings	1 nM	10 nM	100 nM	1000 nM	10000 nM
[1]	-3.5	-1.96	2.68	12.6	72
[15]	-1.28	-4.89	1.81	-0.33	61.4
[16]	-2.68	-3.46	-5.23	19.5	74.1
[17]	-9.78	0.22	-10.4	9.22	80
[18]	0.46	-0.22	5.02	2.15	33.3
[19]	-3	-6.33	-0.83	6.03	49.6
[20]	1.73	2.9	-4.73	19.1	61.7
[21]	0.19	0.52	7.06	25.9	71.8
[22]	-6.77	-0.02	6.51	18.2	83.2
[23]	-2.35	-15.3	3.5	-9.49	27.1
[24]	-4.32	-2.94	2.79	6.64	81.2
[25]	1.46	-2	-6.58	-8.42	44.8
[26]	-1.82	6.1	-1.33	13.9	81.2
[27]	-2.13	4.85	23.2	31.3	72.5

Settings	drug sensitivity score
[2]	3.31
[3]	7.07
[4]	5.96
[5]	1.85
[6]	3.62
[7]	6.18
[8]	6.99
[9]	7.51
[10]	0.74
[11]	5.54
[12]	1.81
[13]	6.8
[14]	9.26
[28]	6.07
